Results as given in paper PMC10739246 (ACS Bio & Med Chem Au, 2023).
Values after ≈ are worked out from the molar mass of the structure shown. “Also recorded” adds a separate entry of the source. Where two headings read alike, the source gives them in different places. Residues, ends and D or L forms follow the SMILES beside them.

Assays:
B. subtilis DSM402 [1] = details: for μM (concentration used, 1x MIC): Table 2, cells treated with 1x MIC; for concentration (MIC against B. subtilis DSM402): Tab. S13, concentrations represent MIC values
MreB in B. subtilis MW10 = experiment: MreB mobility assay; format: cell-based, Bacillus subtilis; details: B. subtilis MW10, 1 h of antibiotic exposure
Protocol: MreB is an actin homologue that forms filamentous structures along the lateral axis of the cell. It moves along the length of the cells in a spiraling pattern thereby driving lateral peptidoglycan synthesis.[36],[37] MreB mobility is sensitive to inhibition of peptidoglycan synthesis and so far, every cell wall synthesis inhibitor we tested abolished MreB movement (see Figure S70 for examples).
Expression of msfGFP-MreB was induced with 0.3% xylose. Pictures were taken after 1 h of antibiotic exposure. Two images of the same field of view were recorded 30 s apart and overlaid in ImageJ to visualize MreB mobility. A perfect overlap (yellow) indicates stalled MreB movement, while distinct red and green foci are indicative of MreB mobility. Scale bar 2 μm.
Fig. S70: MreB motility in B. subtilis MW10 after treatment with different cell wall synthesis inhibitors. Expression of GFP-MreB was induced with 0.3% xylose. Cells were treated with 1x […]
Two images of the same field of view were recorded 30 sec apart and overlaid in ImageJ to visualize MreB mobility. A perfect overlap (yellow) indicates stalled MreB movement while distinct red and green spots are indicative of MreB mobility. Scale bar 2 µm.

[2] = test system: cell wall biosynthesis in B. subtilis DSM402; experiment: Summary of cell wall synthesis experiments; format: cell-based, Bacillus subtilis
[3] = test system: MurG in B. subtilis TNVS175; experiment: MurG localization; format: cell-based, Bacillus subtilis; details: 1x MIC; 30 min (vancomycin) or 1 h;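 note: normal MurG forms small membrane spots and peptidoglycan inhibition gives large clusters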
B. subtilis DSM402 [4] = experiment: Peptidoglycan integrity assay (acetic acid/methanol fixation); details: 1x MIC; 30 min (cell wall inhibitors) or 60 min
[5] = test system: M. tuberculosis (MC26020); experiment: microbe, parasite or virus in culture; format: cell-based, Mycobacterium tuberculosis
E. coli [6] = experiment: microbe, parasite or virus in culture; details: Escherichia coli, read-out: MICC (MIC of the test compound alone)
E. coli [7] = details: for FICC (fractional inhibitory concentration of the test compound): MICCcheckerboard/MICC; for MICCcheckerboard (MIC of the test compound in checkerboard assay): combined with mupirocin; for FICM (MICMcheckerboard/MICM): mupirocin alone 64 µg/mL; for MICMcheckerboard (MIC of mupirocin in checkerboard assay): mupirocin combined with the compound of the line
S. aureus (CCUG1800T) = experiment: MIC, microdilution, S. aureus CCUG1800T; format: cell-based, Staphylococcus aureus
E. coli W3110 = experiment: Bacterial cytological profiling (BCP) in E. coli W3110; format: cell-based, Escherichia coli; details: for DAPI / phase contrast / FM4-64: 1x MIC, 1 h; for DAPI: DNA condensation; for phase contrast: indicates cell lysis; for FM4-64: membrane stain; for gyrase inhibition / membrane damage: interpretation of BCP in E. coli
B. subtilis DSM402 [8] = experiment: Bacterial cytological profiling (BCP) in B. subtilis DSM402; format: cell-based, Bacillus subtilis; details: for DAPI / phase contrast / FM4-64: 1x MIC, 1 h; for DAPI: DNA condensation; for phase contrast: indicates cell lysis; for FM4-64: membrane stain; for gyrase inhibition / membrane damage: interpretation of BCP in B. subtilis
[9] = test system: S. aureus (ATCC 43300) MRSA; experiment: MIC, microdilution, MRSA ATCC 43300; format: cell-based, Staphylococcus aureus; details: norfloxacin-resistant strain
E. faecalis (ATCC 19433) = experiment: MIC, E. faecalis ATCC 19433; format: cell-based, Enterococcus faecalis
P. aeruginosa (PAO1) = experiment: MIC, microdilution, P. aeruginosa PAO1; format: cell-based, Pseudomonas aeruginosa
E. coli (W3110) = experiment: MIC, microdilution, E. coli W3110; format: cell-based, Escherichia coli; details: for MIC: Gram-negative strain, average of duplicate experiments, read-out: MIC E. coli (W3110); for concentration (MIC against E. coli W3110): Tab. S11, concentrations represent MIC values
E. coli BCB472 = experiment: GlpT localization (inner membrane) in E. coli BCB472; details: 1x MIC, 1 h; GFP-tagged membrane protein
[10] = test system: norfloxacin-resistant clinical isolate of E. coli; experiment: MIC, microdilution, norfloxacin-resistant clinical isolate of E. coli; format: cell-based, Escherichia coli; details: read-out: MIC E. coli (norfloxacin-resistant strain)
[11] = test system: K. pneumoniae (ATCC 10031); experiment: MIC, K. pneumoniae ATCC 10031; format: cell-based, Klebsiella pneumoniae
[12] = read-out: MIC S. aureus (CCUG1800T)

C[C@@H]1O[C@@H]1P(=O)(O)O [Fos, fosfomycin]
μM (concentration used, 1x MIC) (B. subtilis DSM402 [1]): 72.43 µM | MreB mobility (MreB in B. subtilis MW10): static with foci | CWB inhibited? [2]: yes | protein localization MurG [3]: patchy/dispersed | PG integrity (B. subtilis DSM402 [4]): compromised

NNC(=O)c1ccncc1 [INH, isoniazid, reference compound]
MIC ([5]; Mycobacterium tuberculosis, read-out: MIC M. tuberculosis (MC26020)): 1.82 µM (≈ 0.25 µg/mL)

C/C(=C\C(=O)OCCCCCCCCC(=O)O)C[C@@H]1OC[C@H](C[C@@H]2O[C@H]2[C@@H](C)[C@H](C)O)[C@@H](O)[C@H]1O [Mup, mupirocin]
MIC (E. coli [6]): 64 µg/mL

CC(C)C[C@@H]1NC(=O)[C@@H](Cc2ccccc2)NC(=O)[C@H](CCN)NC(=O)[C@@H](NC(=O)[C@H](CCN)NC(=O)[C@@H](N)[C@@H](C)O)CCNC(=O)[C@H]([C@@H](C)O)NC(=O)[C@H](CCN)NC(=O)[C@H](CCN)NC1=O [PolBN, polymyxin B nonapeptide, reference compound] (HELM PEPTIDE1{T.[Dab].[Dab].[Dab].[dF].L.[Dab].[Dab].T}$PEPTIDE1,PEPTIDE1,3:R3-9:R2$$$V2.0; N-terminus assumed)
FICI (fractional inhibitory concentration index) (E. coli [7]): 0.0234 | MICC (MIC of the test compound alone) (E. coli [7]): 128 µg/mL | FICC (fractional inhibitory concentration of the test compound) (E. coli [7]): 0.0078 | MICCcheckerboard (MIC of the test compound in checkerboard assay) (E. coli [7]): 1 µg/mL | FICM (MICMcheckerboard/MICM) (E. coli [7]): 0.0156 | MICMcheckerboard (MIC of mupirocin in checkerboard assay) (E. coli [7]): 1 µg/mL

CCn1cc(C(=O)O)c(=O)c2cc(F)c(N3CCN(C(=O)CCl)CC3)cc21 [compound 2]
MIC (S. aureus (CCUG1800T); [12]): 2.52 µM (≈ 0.997 µg/mL) | DAPI (E. coli W3110): condensed | phase contrast (E. coli W3110): dark | FM4-64 (E. coli W3110): smooth | gyrase inhibition (E. coli W3110): yes | membrane damage (E. coli W3110): no | concentration (MIC against B. subtilis DSM402) (B. subtilis DSM402 [1]): 1.89 µM | μM (concentration used, 1x MIC) (B. subtilis DSM402 [1]): 1.89 µM | DAPI (B. subtilis DSM402 [8]): condensed | phase contrast (B. subtilis DSM402 [8]): dark | FM4-64 (B. subtilis DSM402 [8]): smooth | gyrase inhibition (B. subtilis DSM402 [8]): yes | membrane damage (B. subtilis DSM402 [8]): no | FICC (fractional inhibitory concentration of the test compound) (E. coli [7]): 1.25 | MICC (MIC of the test compound alone) (E. coli [7]; average of at least two replicates): 2 µg/mL | Outcome (E. coli [7]; checkerboard with mupirocin): additive (>0.5 to ≤4.0 as additive (no interaction)) | MICCcheckerboard (MIC of the test compound in checkerboard assay) (E. coli [7]): 2.5 µg/mL | FICM (MICMcheckerboard/MICM) (E. coli [7]): 0.2656 | MICMcheckerboard (MIC of mupirocin in checkerboard assay) (E. coli [7]): 7.8 µg/mL | FICI (fractional inhibitory concentration index) (E. coli [7]; with mupirocin, FICC+FICM): 1.5156 | MIC [9]: 161.69 µM (≈ 64 µg/mL) | MIC (E. faecalis (ATCC 19433)): 6.31 µM (≈ 2.5 µg/mL) | MIC (P. aeruginosa (PAO1)): 192 µM (≈ 76 µg/mL) | MIC (E. coli (W3110)): 6.31 µM (≈ 2.5 µg/mL) | concentration (MIC against E. coli W3110) (E. coli (W3110)): 6.31 µM | CWB inhibited? [2]: no | GlpT (E. coli BCB472): smooth | MIC [10]: >1293.54 µM | MIC M. tuberculosis (MC26020) [5]: >1293.54 µM | PG integrity (B. subtilis DSM402 [4]): came close to the cutoff value; also recorded: intact | MIC [11]: 121.27 µM (≈ 48 µg/mL)

CCn1cc(C(=O)O)c(=O)c2cc(F)c(N3CCN(C(=O)CNNC(=O)c4ccncc4)CC3)cc21 [compound 16]
MIC (S. aureus (CCUG1800T); Tab. S10, DNA gyrase side, strain not given, values equal S. aureus CCUG1800T of Table 1, read-out: MIC): 2.01 µM (≈ 0.998 µg/mL) | MIC (S. aureus (CCUG1800T); [12]): 2.01 µM (≈ 0.998 µg/mL) | concentration (MIC against B. subtilis DSM402) (B. subtilis DSM402 [1]): 2.01 µM | μM (concentration used, 1x MIC) (B. subtilis DSM402 [1]): 2.01 µM | DAPI (B. subtilis DSM402 [8]): condensed | phase contrast (B. subtilis DSM402 [8]): dark | FM4-64 (B. subtilis DSM402 [8]): patchy | gyrase inhibition (B. subtilis DSM402 [8]): yes | membrane damage (B. subtilis DSM402 [8]): yes | MIC [9]: 64.45 µM (≈ 32 µg/mL) | MIC (E. faecalis (ATCC 19433)): 2.01 µM (≈ 0.998 µg/mL) | MIC (P. aeruginosa (PAO1)): 515.61 µM (≈ 256 µg/mL) | MIC (E. coli (W3110)): 64.45 µM (≈ 32 µg/mL) | CWB inhibited? [2]: no | MIC ([10]; norfloxacin-resistant clinical isolate): 32.22 µM (≈ 16 µg/mL) | MIC M. tuberculosis (MC26020) [5]: 1 µM (≈ 0.496 µg/mL) | PG integrity (B. subtilis DSM402 [4]): intact | MIC [11]: 12.08 µM (≈ 6 µg/mL)

polymyxin B [PolB, reference compound]
DAPI (E. coli W3110): dispersed | phase contrast (E. coli W3110): dark | FM4-64 (E. coli W3110): patchy | gyrase inhibition (E. coli W3110): no | membrane damage (E. coli W3110): yes | concentration (MIC against E. coli W3110) (E. coli (W3110)): 0.83 µM | GlpT (E. coli BCB472): dispersed

tunicamycin
μM (concentration used, 1x MIC) (B. subtilis DSM402 [1]): 19.58 µM | MreB mobility (MreB in B. subtilis MW10): static | CWB inhibited? [2]: yes | protein localization MurG [3]: patchy | PG integrity (B. subtilis DSM402 [4]): compromised
